Results from patent US20240181087A1, “COMPOSITION FOR CONTRAST IMAGING OF CANCER” (ASTELLAS PHARMA INC., priority 2021, published 2024).

Legend:
Type in all cases: in vivo
RenCa cell = assay: near-infrared fluorescence imaging of abdominal cavity, peritoneal cancer mouse model (RenCa, intraperitoneal); conditions: tail vein 12 nmol/kg; laparotomy immediately after administration
Protocol: Metastatic spontaneous renal cell carcinoma line from BALB/c mouse, RenCa cell (5×10^6 cells, purchased from CLS Cell Lines Service GmbH, Eppelheim, Germany) was intraperitoneally inoculated into a mouse (BALB/cCrSlc, SPF, female, 7 weeks old) and the resultant mouse was bred for 14 days to cause peritoneal cancer therein. The mouse (weight: about 20 g) was anesthetized by subcutaneous administration of ketamine (75 mg/kg) and medetomidine (1 mg/kg), and the compound III (12 nmol/kg weight) was administered through the tail vein. Immediately after the administration, laparotomy was conducted to perform near-infrared fluorescence imaging with a near-infrared fluorescence imaging device (pde-neo, manufactured by Hamamatsu Photonics K.K.).

mouse tumor cell 4T1 = assay: near-infrared fluorescence imaging after administration into tumor, 4T1 breast cancer model
Source text: A syngeneic tumor transplanted mouse model was created as follows referring to “Gan-Shikkan Model no Sakusei to Riyo (Cancer-Creation and Use of Disease Model)” (Takuro Nakamura, LIC, 2012). • (Breast Cancer) A tumor model was created by breeding a normal Balb/c mouse (weight: about 20 g to 30 g) for 14 days with mouse tumor cell 4T1 subcutaneously administered thereto. • (Colorectal Cancer) A tumor model was created by breeding a normal Balb/c mouse (weight: about 20 g to 30 g) for 14 days with CT26 (colorectal cancer cell) subcutaneously administered thereto. • (Skin Cancer) A tumor model was created by breeding a C57BL/6 mouse (weight: about 15 g to 20 g) for 14 days with B16F1 (skin cancer cell) subcutaneously administered thereto.
Subsequently, to the tumor of each of the model mice, 0.02 to 0.05 mL of a saline containing the compound III or ICG (concentration of the compound III or ICG: 1 mg/mL) was administered, and fluorescence imaging was performed transdermally with a near-infrared fluorescence camera (Fluobeam, manufactured by Fluoptics, http://www.solve-net.com/info/wp-content/uploads/downloads/2013/12/Fluobeam.pdf) (excitation wavelength: 780 nm, detection wavelength: 800 nm or more).

RenCa kidney cancer cell = assay: near-infrared fluorescence observation of kidney, kidney cancer mouse (RenCa in left kidney); conditions: tail vein 12 nmol/kg, after 10 minutes
Protocol: Under anesthesia by subcutaneous administration of ketamine (75 mg/kg) and medetomidine (1 mg/kg), RenCa kidney cancer cell (5×10^6 cells, purchased from CLS Cell Lines Service GmbH, Eppelheim, Germany) was transplanted into the left kidney of a mouse (weight: about 20 g), and the resultant mouse was bred for 9 to 14 days to create a kidney cancer mouse. […] The fluorescence from a cancer tissue was weak, the fluorescence from a normal tissue was strong, and thus, the cancer tissue and the normal tissue could be distinguished from each other (FIG. 24).

[1] = system: mouse bladder cancer cell MB49; assay: near-infrared fluorescence observation of bladder after intravesical administration via the urethra, MB49 bladder cancer mouse model; conditions: into bladder via urethra, after 30 minutes washed with saline five times
Protocol: Two bladder cancer mouse models (weight: about 20 g), having mouse bladder cancer cell MB49 transplanted in the bladder mucosa, and then grown for 3 weeks or 4 weeks, were used. To the bladder of each of the mice, 0.2 mL of a saline containing the compound III (concentration of the compound III: 0.075 mg/mL) was administered via the urethra, and after 30 minutes, the inside of the bladder was washed via the urethra with saline five times. Thereafter, the mouse was subjected to laparotomy under anesthesia by subcutaneous administration of ketamine (75 mg/kg) and medetomidine (1 mg/kg), and near-infrared fluorescence observation was performed with a near-infrared fluorescence imaging device (pde-neo, manufactured by Hamamatsu Photonics K.K.) (FIG. 3, right: near-infrared fluorescence image).
As a comparative example, a saline containing the compound III was administered to the bladder of a normal mouse (weight: about 20 g) via the urethra, and after 30 minutes, the inside of the bladder was washed via the urethra with saline five times. Thereafter, the mouse was subjected to laparotomy under anesthesia by subcutaneous administration of ketamine (75 mg/kg) and medetomidine (1 mg/kg), and near-infrared fluorescence observation was performed with a near-infrared fluorescence imaging device (pde-neo, manufactured by Hamamatsu Photonics K.K.) (FIG. 4). […]

[2] = system: human tongue cancer cells CAL27; assay: near-infrared fluorescence imaging after topical administration into tumor, human tongue cancer subcutaneous transplant model; conditions: SCID mouse, 0.02 to 0.1 mL of 1 mg/mL, immediately after and 50 minutes after administration
Protocol: A human cancer cell transplant model mouse was created as follows: • (Head and neck/tongue cancer) To immunodeficient SCID mice (weight: 17 g to 23 g), about 10^6 human tongue cancer cells CAL27 (purchased from American Type Culture Collection: ATCC) were subcutaneously administered, and the resultant mice were grown for 49 days to create tumor models. • (Brain cancer/neuroblastoma) To immunodeficient SCID mice (weight: 17 g to 23 g), about 10^6 human neuroblastoma cells SH-SY5Y (purchased from ATCC) were subcutaneously administered, and the resultant mice were grown for 90 days to create tumor models. • (Brain cancer/glioblastoma) To immunodeficient SCID mice (weight: 17 g to 23 g), about 10^6 human glioblastoma cells U-251MG (obtained from European Collection of Authenticated Cell Cultures) were subcutaneously administered, and the resultant mice were grown for 90 days to create tumor models.
Subsequently, to the tumor of each of the mouse models, 0.02 to 0.1 mL of a saline containing the compound III (concentration of the compound III: 1 mg/mL) was topically administered, and fluorescence imaging was conducted transdermally with a near-infrared fluorescence camera (Fluobeam, manufactured by Fluoptics) (excitation wavelength: 780 nm, detection wavelength: 800 nm or more).

With `COC1=C(/C=C/C2=[N+](CCC(=O)NCCCO[C@H]3[C@H]4O[C@H]5[C@H](O)[C@@H](O)[C@@H](O[C@H]6[C@H](O)[C@@H](O)[C@@H](O[C@H]7[C@H](O)[C@@H](O)[C@@H](O[C@H]8[C@H](O)[C@@H](O)[C@@H](O[C@H]9[C@H](O)[C@@H](O)[C@@H](O[C@H]%10[C@H](O)[C@@H](O)[C@@H](O[C@@H]([C@@H]3O)[C@@H](CO)O4)O[C@@H]%10CO)O[C@@H]9CO)O[C@@H]8CO)O[C@@H]7CO)O[C@@H]6CO)O[C@@H]5CO)c3ccc4ccccc4c3C2(C)C)CCC/C1=C\C=C1\N(CCC(=O)NCCCO[C@H]2[C@H]3O[C@H]4[C@H](O)[C@@H](O)[C@@H](O[C@H]5[C@H](O)[C@@H](O)[C@@H](O[C@H]6[C@H](O)[C@@H](O)[C@@H](O[C@H]7[C@H](O)[C@@H](O)[C@@H](O[C@H]8[C@H](O)[C@@H](O)[C@@H](O[C@H]9[C@H](O)[C@@H](O)[C@@H](O[C@@H]([C@@H]2O)[C@@H](CO)O3)O[C@@H]9CO)O[C@@H]8CO)O[C@@H]7CO)O[C@@H]6CO)O[C@@H]5CO)O[C@@H]4CO)c2ccc3ccccc3c2C1(C)C.[Cl-]` [compound III, 3-(3-{[3-(cyclomaltoheptaose-21-O-yl)propyl]amino}-3-oxopropyl)-2-{(1E)-2-[(3E)-3-{(2E)-2-[3-(3-{[3-(cyclomaltoheptaose-21-O-yl)propyl]amino}-3-oxopropyl)-1,1-dimethyl-1,3-dihydro-2H-benzo[e]indol-2-ylidene]ethylidene}-2-methoxycyclohexa-1-en-1-yl]ethene-1-yl}-1,1-dimethyl-1H-benzo[e]indol-3-ium chloride] the “near-infrared fluorescence from peritoneal cancer site versus normal tissue” value (RenCa cell) was “stronger than that from a normal tissue”, the “retention in tumor (fluorescence imaging)” value (mouse tumor cell 4T1; 4T1 breast cancer model, 0.02 to 0.05 mL of 1 mg/mL saline, transdermal imaging) was “retained in the tumor” and the “drawing of tumor outline / exudation to surrounding tissues” value (mouse tumor cell 4T1; 4T1 tumor, 1 mg/mL saline, fluorescence imaging, incl. during tumor excision operation) was “did not exude to surrounding tissues but the outline of the tumor was drawn”. The “fluorescence from kidney cancer tissue” value (RenCa kidney cancer cell) was “weak”, the “fluorescence from normal kidney tissue” value (RenCa kidney cancer cell) was “strong” and the “near-infrared fluorescence in cancer tissue of the bladder” value ([1]; MB49 bladder cancer mouse model, 0.2 mL 0.075 mg/mL) was “specifically observed”. For the same molecule, the “near-infrared fluorescence of normal tissue (bladder)” value ([1]; normal mouse) was “did not emit near-infrared fluorescence” and the “retention inside the tumor (fluorescence imaging)” value [2] was “retained inside the tumor”.
